Drawing on US20240228510A1, “KRAS G12C INHIBITORS” (Mirati Therapeutics, Inc., priority 2021, published 2024), this text covers IC50 for 22 compounds.

Each structure is given as a SMILES string.

This test relates to KRas G12C. In words: Inhibition of KRas G12C-mediated pERK in H358 cells (Phospho-ERK In-Cell Western). The settings on record: Homo sapiens; NCI-H358 cells; 3 hours compound; pERK(Thr202/Tyr204) normalized to GAPDH; 4 parameter fit. In kind it is cell-based. On the procedure: The cellular inhibition of KRAs G12C by exemplary compounds of the present invention was determined by measuring the amount of a downstream marker of KRas activity, phosphorylated ERK (“Phospho-ERK”).
NCI-H358 cells (ATCC CRL-5807) express KRas G12C and were grown in RPMI medium supplemented with 10% fetal bovine serum, penicillin/streptomycin and 10 mM HEPES. Cells were plated in poly-D-Lysine coated 96-well plates at a concentration of 50,000 cells/well and allowed to attach for 8-12 hours. Diluted compounds were then added at a final concentration of 0.5% DMSO. After 3 hours, the medium was removed, 150 μL of 4% formaldehyde was added and the plates were incubated for 20 minutes. The plates were washed with PBS, and permeabilized using 150 μL of ice cold 100% methanol for 10 minutes. Non-specific antibody binding to the plates was blocked using 100 μL Licor Blocking Buffer (Li-Cor Biotechnology, Lincoln NE) for 1 hour at room temperature. Positive control samples and samples lacking cells were parallel processed with test samples as standards.
The amount Phospho-ERK was determined using an antibody specific for the phosphorylated form of ERK and compared to the amount of GAPDH. Primary antibodies used for detection were added as follows: Phospho-ERK (Cell Signaling cs9101) diluted 1:500 and GAPDH (Millipore MAB374) diluted 1:5000 in Licor block+0.05% Tween 20. The plates were incubated for 2 hours at room temperature. The plates were washed with PBS+0.05% Tween 20.
Secondary antibodies used to visualize primary antibodies were added as follows: Anti-rabbit-680 diluted 1:1000 and Anti-mouse-800 diluted 1:1000 in Licor Block+0.05% Tween 20 and incubated for 1 hour at room temperature. The plates were washed with PBS+0.05% Tween 20. A 100 μL aliquot of PBS was added to each well and the plates were read on a LICOR AERIUS plate reader.
The pERK(Thr202/Tyr204) signal was normalized with the GAPDH signal and percent of DMSO control values were calculated. IC50 values were generated using a 4 parameter fit of the dose response curve.

Take `C=CC(=O)N1CC[C@@H]2[C@H]1CN2c1snc2c(F)c(-c3cccc4ccc(F)c(Cl)c34)ncc12` [Example 17, 1-((1R,5R)-6-(6-(8-chloro-7-fluoronaphthalen-1-yl)-7-fluoroisothiazolo[4,3-c]pyridin-3-yl)-2,6-diazabicyclo[3.2.0]heptan-2-yl)prop-2-en-1-one]: the IC50 (usually the point on the concentration scale where inhibition reaches its midpoint) was 6000 nM.

Consider `C=CC(=O)N1CCN(c2c(F)cnc3c(F)c(-c4cccc5ccc(F)c(Cl)c45)ncc23)CC1` [Example 2, 1-(4-(7-(8-chloro-7-fluoronaphthalen-1-yl)-3,8-difluoro-1,6-naphthyridin-4-yl)piperazin-1-yl)prop-2-en-1-one], for which the IC50 was 3050 nM. Against the preceding compound, the IC50 is about 2-fold lower.

In the case of `C#Cc1c(F)ccc2cccc(-c3ncc4c(N5C[C@@H]6[C@H]5CCN6C(=O)C=C)c(OC)cnc4c3F)c12` [Example 6, 1-((1R,5R)-6-(7-(8-ethynyl-7-fluoronaphthalen-1-yl)-8-fluoro-3-methoxy-1,6-naphthyridin-4-yl)-2,6-diazabicyclo[3.2.0]heptan-2-yl)prop-2-en-1-one], it took 22 nM to reach half-maximal inhibition (IC50). Compared with the last compound, the IC50 is about 140-fold lower.

The compound `C=CC(=O)N1CC2(CCN(c3snc4c(F)c(-c5cccc6ccc(F)c(Cl)c56)ncc34)CC2)C1` [Example 22, 1-(7-(6-(8-chloro-7-fluoronaphthalen-1-yl)-7-fluoroisothiazolo[4,3-c]pyridin-3-yl)-2,7-diazaspiro[3.5]nonan-2-yl)prop-2-en-1-one] had a half-maximal inhibitory concentration (IC50) of 8000 nM.

`C#Cc1c(F)ccc2cccc(-c3ncc4c(N5C[C@@H]6[C@H]5CCN6C(=O)C=C)ccnc4c3F)c12` [Example 11, 1-((1R,5R)-6-(7-(8-ethynyl-7-fluoronaphthalen-1-yl)-8-fluoro-1,6-naphthyridin-4-yl)-2,6-diazabicyclo[3.2.0]heptan-2-yl)prop-2-en-1-one] returned a 50% inhibitory concentration (IC50) of 17 nM.

In turn, `C#Cc1c(F)ccc2cccc(-c3ncc4c(N5C[C@@H]6[C@H]5CCN6C(=O)C=C)c(Cl)cnc4c3F)c12` [Example 13, 1-((1R,5R)-6-(3-chloro-7-(8-ethynyl-7-fluoronaphthalen-1-yl)-8-fluoro-1,6-naphthyridin-4-yl)-2,6-diazabicyclo[3.2.0]heptan-2-yl)prop-2-en-1-one] showed an IC50 of 31 nM. Compared with the last compound, the IC50 is about 1.8-fold higher.

Consider `C#Cc1cccc2cc(O)cc(-c3ncc4c(N5C[C@@H]6[C@H]5CCN6C(=O)C=C)snc4c3F)c12` [Example 18, 1-((1R,5R)-6-(6-(8-ethynyl-3-hydroxynaphthalen-1-yl)-7-fluoroisothiazolo[4,3-c]pyridin-3-yl)-2,6-diazabicyclo[3.2.0]heptan-2-yl)prop-2-en-1-one], for which inhibition was half-maximal at 14 nM (IC50).

With `C#Cc1cccc2cccc(-c3ncc4c(N5C[C@@H]6[C@H]5CCN6C(=O)C=C)c(Cl)cnc4c3F)c12` [Example 3, 1-((1R,5R)-6-(3-chloro-7-(8-ethynylnaphthalen-1-yl)-8-fluoro-1,6-naphthyridin-4-yl)-2,6-diazabicyclo[3.2.0]heptan-2-yl)prop-2-en-1-one], the half-inhibitory concentration (IC50) amounted to 75 nM. This IC50 lies about 5.4-fold higher than the previous one.

In turn, `C#Cc1c(F)ccc2cccc(-c3ncc4c(N5C[C@@H]6[C@H]5CCN6C(=O)C=C)cc(C)nc4c3F)c12` [Example 14, 1-((1R,5R)-6-(7-(8-ethynyl-7-fluoronaphthalen-1-yl)-8-fluoro-2-methyl-1,6-naphthyridin-4-yl)-2,6-diazabicyclo[3.2.0]heptan-2-yl)prop-2-en-1-one] came in with an IC50 of 21 nM.

In turn, `C#Cc1c(F)ccc2cccc(-c3ncc4c(N5[C@@H]6CCN(C(=O)C=C)[C@@H]6[C@@H]5C)cc(OC)nc4c3F)c12` [Example 15, 1-((1R,5R,7S)-6-(7-(8-ethynyl-7-fluoronaphthalen-1-yl)-8-fluoro-2-methoxy-1,6-naphthyridin-4-yl)-7-methyl-2,6-diazabicyclo[3.2.0]heptan-2-yl)prop-2-en-1-one] returned a half-maximal inhibitory concentration (IC50) of 1440 nM.

In turn, `C#Cc1cccc2cccc(-c3ncc4c(N5C[C@@H]6[C@H]5CCN6C(=O)C=C)snc4c3F)c12` [Example 19, 1-((1R,5R)-6-(6-(8-ethynylnaphthalen-1-yl)-7-fluoroisothiazolo[4,3-c]pyridin-3-yl)-2,6-diazabicyclo[3.2.0]heptan-2-yl)prop-2-en-1-one] yielded an IC50 of 748 nM.

Turning to `C=CC(=O)N(C)C1CN(c2snc3c(F)c(-c4cccc5ccc(F)c(Cl)c45)ncc23)C1` [Example 21, N-(1-(6-(8-chloro-7-fluoronaphthalen-1-yl)-7-fluoroisothiazolo[4,3-c]pyridin-3-yl)azetidin-3-yl)-N-methylacrylamide], the half-maximal inhibitory concentration (IC50) was 9000 nM.

`C=CC(=O)N1CC[C@@H]2[C@H]1CN2c1c(Cl)cnc2c(F)c(-c3cccc4ccc(F)c(Cl)c34)ncc12` [Example 4, 1-((1R,5R)-6-(3-chloro-7-(8-chloro-7-fluoronaphthalen-1-yl)-8-fluoro-1,6-naphthyridin-4-yl)-2,6-diazabicyclo[3.2.0]heptan-2-yl)prop-2-en-1-one] displayed a concentration for half-maximal inhibition (IC50) of 169 nM.

As to `C=CC(=O)N1CCN(c2ccnc3c(F)c(-c4cccc5ccc(F)c(Cl)c45)ncc23)CC1` [Example 1, 1-(4-(7-(8-chloro-7-fluoronaphthalen-1-yl)-8-fluoro-1,6-naphthyridin-4-yl)piperazin-1-yl)prop-2-en-1-one], the midpoint of inhibition, the IC50, lay at 2740 nM. Against the preceding compound, the IC50 is about 16-fold higher.

As for `C=CC(=O)N1CCN(c2c(C#N)cnc3c(F)c(-c4cccc5ccc(F)c(Cl)c45)ncc23)CC1` [Example 10, 4-(4-acryloylpiperazin-1-yl)-7-(8-chloro-7-fluoronaphthalen-1-yl)-8-fluoro-1,6-naphthyridine-3-carbonitrile], half-maximal inhibition (IC50) was put at 3680 nM.

`C=CC(=O)N1CCN(c2c(C)cnc3c(F)c(-c4cccc5ccc(F)c(Cl)c45)ncc23)CC1` [Example 5, 1-(4-(7-(8-chloro-7-fluoronaphthalen-1-yl)-8-fluoro-3-methyl-1,6-naphthyridin-4-yl)piperazin-1-yl)prop-2-en-1-one] had a 50% inhibitory concentration (IC50) of 5000 nM.

`C#Cc1cccc2cc(O)cc(-c3ncc4c(N5C[C@@H]6[C@H]5CCN6C(=O)C=C)c(Cl)cnc4c3F)c12` [Example 8, 1-((1R,5R)-6-(3-chloro-7-(8-ethynyl-3-hydroxynaphthalen-1-yl)-8-fluoro-1,6-naphthyridin-4-yl)-2,6-diazabicyclo[3.2.0]heptan-2-yl)prop-2-en-1-one] registered an IC50 of 1 nM.

In turn, `C#Cc1c(F)ccc2cccc(-c3ncc4c(N5C[C@@H]6[C@H]5CCN6C(=O)C=C)c(C#N)cnc4c3F)c12` [Example 12, 4-((1R,5R)-2-acryloyl-2,6-diazabicyclo[3.2.0]heptan-6-yl)-7-(8-ethynyl-7-fluoronaphthalen-1-yl)-8-fluoro-1,6-naphthyridine-3-carbonitrile] had an IC50 of 24 nM. This IC50 lies about 24-fold higher than the previous one.

As for `C#Cc1c(F)ccc2cccc(-c3ncc4c(N5[C@@H]6CCN(C(=O)C=C)[C@@H]6[C@@H]5C)cc(C)nc4c3F)c12` [Example 16, 1-((1R,5R,7S)-6-(7-(8-ethynyl-7-fluoronaphthalen-1-yl)-8-fluoro-2-methyl-1,6-naphthyridin-4-yl)-7-methyl-2,6-diazabicyclo[3.2.0]heptan-2-yl)prop-2-en-1-one], the half-maximal inhibitory concentration (IC50) was 73 nM.

In turn, `C=CC(=O)N1CC2(C1)CN(c1snc3c(F)c(-c4cccc5ccc(F)c(Cl)c45)ncc13)C2` [Example 20, 1-(6-(6-(8-chloro-7-fluoronaphthalen-1-yl)-7-fluoroisothiazolo[4,3-c]pyridin-3-yl)-2,6-diazaspiro[3.3]heptan-2-yl)prop-2-en-1-one] had an IC50 of 7000 nM.

As to `C=CC(=O)N1CCN(c2c(Cl)cnc3c(F)c(-c4cccc5ccc(F)c(Cl)c45)ncc23)CC1` [Example 7, 1-(4-(3-chloro-7-(8-chloro-7-fluoronaphthalen-1-yl)-8-fluoro-1,6-naphthyridin-4-yl)piperazin-1-yl)prop-2-en-1-one], the IC50 came out at 5910 nM.

In turn, `C=CC(=O)N1CCN(c2c(OC)cnc3c(F)c(-c4cccc5ccc(F)c(Cl)c45)ncc23)CC1` [Example 9, 1-(4-(7-(8-chloro-7-fluoronaphthalen-1-yl)-8-fluoro-3-methoxy-1,6-naphthyridin-4-yl)piperazin-1-yl)prop-2-en-1-one] displayed an IC50 of 9000 nM.
